Drawing on patent US20060128702A1, “Heterocyclic and bicyclic compounds, compositions and methods” (priority 2004, published 2006), this text covers IC50, melting point and inhibition for 21 compounds.

Where only a bound is given, the exact number is not on record here.

Data set [1] has as its system MCP-1 (monocyte chemoattractant protein 1) expression. In words: MCP-1 ELISA (inflammation assay in HAECs). Format: cell-based. Particulars: Endothelial cell; HAEC supernatants; TNFα (0.5 ng/mL) or glycated human serum albumin (300 μg/mL), 18-24 h; read-out: IC50, MCP-1 enzyme-linked immunosorbent assay. As for the experimental part:
(§1) For inflammation assays, human aortic endothelial cells (HAECs) in 96 well plates were washed once with treatment medium (basal medium containing 1% FBS). Cells were treated with an inflammatory agent such as TNFα (0.5 ng/mL) or glycated human serum albumin (US Biologicals) as source of advanced glycation end products (AGEs) (300 μg/mL) for 18-24 h in the presence or absence of specified amount of compound. Cell supernatants were collected and used for measuring MCP-1 (monocyte chemoattractant protein 1) or IL-6 (interleukin-6) expression by ELISA. Cell layers were washed and used for determining vascular cell adhesion molecule-1 (VCAM-1) expression.
MCP-1 ELISA was carried out using Quantikine Human MCP-1 kit as described by the manufacturer (R&D Systems, Inc.). Mouse anti-human MCP-1 was used as the capture antibody and HRP (horse radish peroxidase)-conjugated goat anti-human MCP-1 antibody was used as detection antibody. Culture medium was incubated with the capture antibody (in 96-well plate) for 2 h at room temperature. Wells were washed three times with wash buffer (0.05% Tween-20 in PBS) followed by incubation with detection antibody for 2 h at room temperature. Color development was read at […] in a microplate reader.

The subject of data set [2] is vascular cell adhesion molecule-1 (VCAM-1) expression. In words: VCAM-1 ELISA (inflammation assay in HAECs). Particulars: HAEC cell layers; TNFα (0.5 ng/mL) or glycated human serum albumin (300 μg/mL), 18-24 h; read-out: IC50, VCAM-1 enzyme-linked immunosorbent assay. Format: cell-based. As for the experimental part: as §1
The cells were fixed cells with 100% methanol for 10 min at room temperature. The methanol was removed and the plate was air-dried. 100 μl of 1:1000 diluted primary antibody (polyclonal goat anti-human VCAM-1—R&D Systems #BBA19) was then added and incubated for 2 h at 37 C. The cells were washed with PBS and 100 μl of 1:5000 dilution of secondary antibody (rabbit anti-goat IgG-HRP—Zymed #81-1620) was added and incubated for 1 h at room temperature. Cells were washed and 100 μl of substrate solution (R&D Systems# DY999) was added and incubated for 20 min in the dark at room temp. 50 μl of stop solution (2N sulfuric acid) was added to the wells and absorbency at 450 nm was noted.

For data set [3], the system named is IL-6 (interleukin-6) expression. As to the kind of experiment: IL-6 ELISA (inflammation assay in HAECs). Format: cell-based. Particulars: endothelial cell media; TNFα (0.5 ng/mL) or glycated human serum albumin (300 μg/mL), 18-24 h; read-out: IC50, IL-6 enzyme-linked immunosorbent assay. As for the experimental part: as §1
IL-6 expression in endothelial cell media were determined using DuaSet IL-6 ELISA kit from R&D Systems (Cat No DY206) as described by the manufacturer. Mouse anti-human IL-6 antibody was used as the capture antibody and biotinylated goat anti-human IL-6 was used as detection antibody. Culture medium was incubated with the capture antibody (in 96-well plate) for 2 h at room temperature. Wells were washed three times with wash buffer (0.05% Tween-20 in PBS) followed by incubation with detection antibody for 2 h at room temperature. The wells were then incubated with streptavidin HRP and color development was read at 450 nm in a microplate reader.
For orientation: ELISA stands for enzyme-linked immunosorbent assay.

The subject of data set [4] is human aortic smooth muscle cells. As to the kind of experiment: Smooth muscle cell proliferation assay. Format: cell-based. Particulars: human aortic SMC, growth medium containing serum, 24 h post treatment; for IC50: read-out: Effect: concentration giving 50% inhibition of smooth muscle cell proliferation. Here is the method: Primary cultures of human aortic smooth muscle cells were obtained from Clonetics. SMC were initially grown in T-75 flasks prior to seeding in 96 well plates. The 96-well plates were seeded with 4000 cells/well. The following day cells were washed with serum free medium and left in serum free media for 24 hours for serum starvation. The next day cells received growth medium containing serum with or without compound. The 24 h post treatment cell proliferation was assayed either assessing the incorporation of radiolabeled thymidine to DNA or using a non-radioactive cell proliferation kit from Promega (CellTiter AQ).

As usually defined, the melting point is the temperature of the solid-liquid transition. On to `CNC(=O)c1ccc(Nc2cc(-n3ccc(C(F)(F)F)n3)c3ccccc3n2)cc1` [E 22, N-Methyl-4-[4-(3-trifluoromethyl-pyrazol-1-yl)-quinolin-2-ylamino]-benzamide], for which the melting point lay in the range of 250 to 252 °C. For the same compound, the IC50 in data set [1] was 750 nM. In data set [2], the IC50 turned out to be 2100 nM. `COc1ccc(Nc2cc(-c3ccccc3)nc3ccccc23)cc1Cl` [E 5, (3-Chloro-4-methoxy-phenyl)-(2-phenyl-quinolin-4-yl)-amine]: the melting point lay within 272 to 274 °C. In addition, the IC50 in data set [3] stood at 2000 nM. For the compound `Clc1ccc2c(ccn2-c2cc(-c3ccccc3)nc3ccccc23)c1` [E 10, 4-(5-Chloro-indol-1-yl)-2-phenyl-quinoline], the melting point was 148 to 150 °C. Take `FC(F)(F)c1ccn(-c2cc(N3CCOCC3)nc3ccccc23)n1` [E 20, 2-Morpholin-4-yl-4-(3-trifluoromethyl-pyrazol-1-yl)-quinoline]: the melting point was in the range of 118 to 120 °C.

`Oc1ccc(-c2nc(-c3ccncc3)nc3ccccc23)c(O)c1` [E 3, 4-(2-Pyridin-4-yl-quinazolin-4-yl)-benzene-1,3-diol] yielded a melting point of 280 to 282 °C. `COc1cc(Nc2cc(-c3ccc(F)cc3)nc3ccccc23)ccc1Cl` [E 13, (4-Chloro-3-methoxy-phenyl)-[2-(4-fluoro-phenyl)-quinolin-4-yl]-amine]: the melting point was in the range of 274 to 276 °C. In addition, in data set [1], the IC50 worked out at 5000 nM. Besides, the IC50 in data set [2] came to 3500 nM.

In the case of `FC(F)(F)Oc1ccc(Nc2cc(-n3ccc(C(F)(F)F)n3)c3ccccc3n2)cc1` [E 19, (4-Trifluoromethoxy-phenyl)-[4-(3-trifluoromethyl-pyrazol-1-yl)-quinolin-2-yl]-amine], the melting point fell in the range of 128 to 130 °C. The IC50 in data set [1] was determined as 1000 nM. Besides, the IC50 in data set [2] came out at 1000 nM. `COc1ccc(Nc2nc(-c3ccc(F)cc3)cc3ccc(C)cc23)cc1Cl` [E 6, (3-Chloro-4-methoxy-phenyl)-[3-(4-fluoro-phenyl)-7-methyl-isoquinolin-1-yl]-amine]: the melting point was in the range of 154 to 156 °C. For `Fc1ccc(-c2cc(-n3ccc(C(F)(F)F)n3)c3ccccc3n2)cc1` [E 11, 2-(4-Fluoro-phenyl)-4-(3-trifluoromethyl-pyrazol-1-yl)-quinoline], the IC50 in data set [4] was found to be 1000 nM. Turning to `COc1ccc(Nc2nc(-c3ccc(F)cc3)cc3ccc(C)cc23)cc1F` [E 7, (3-Fluoro-4-methoxy-phenyl)-[3-(4-fluoro-phenyl)-7-methyl-isoquinolin-1-yl]-amine], the melting point lay in the range of 163 to 165 °C. Besides, the IC50 in data set [1] was 5000 nM.

Consider `FC(F)(F)c1ccn(-c2cc(-c3ccc4c(c3)OCO4)nc3ccccc23)n1` [E 15, 2-Benzo[1,3]dioxol-5-yl-4-(3-trifluoromethyl-pyrazol-1-yl)-quinoline], for which the melting point fell in the range of 98 to 100 °C. Moreover, the IC50 in data set [1] came out at 4200 nM. For the same compound, in data set [2], the IC50 is 5000 nM. In the case of `COc1ccc(Nc2cc(-c3ccncc3)nc3ccccc23)cc1Cl` [E 1, (3-Chloro-4-methoxy-phenyl)-(2-pyridin-4-yl-quinolin-4-yl)-amine], the melting point fell in the range of 280 to 282 °C. `CSc1ccc(-c2cc(-n3ccc(C(F)(F)F)n3)c3ccccc3n2)cc1` [E 16, 2-(4-Methylsulfanyl-phenyl)-4-(3-trifluoromethyl-pyrazol-1-yl)-quinoline] came in with a melting point of 116 to 118 °C. Moreover, in data set [4], the IC50 worked out at 1160 nM.

Turning to `COc1ccc(Nc2nc(-c3ccncc3)nc3ccccc23)cc1Cl` [E 2, (3-Chloro-4-methoxy-phenyl)-(2-pyridin-4-yl-quinazolin-4-yl)-amine], the melting point is greater than 220 °C. For the compound `CNS(=O)(=O)c1ccc(Nc2cc(-n3ccc(C(F)(F)F)n3)c3ccccc3n2)cc1` [E 21, N-Methyl-4-[4-(3-trifluoromethyl-pyrazol-1-yl)-quinolin-2-ylamino]-benzenesulfonamide], the melting point fell in the range of 220 to 222 °C. Moreover, in data set [1], the IC50 came out at 430 nM. Moreover, the IC50 in data set [2] was determined as 610 nM. In turn, `CS(=O)(=O)c1ccc(-c2cc(-n3ccc(C(F)(F)F)n3)c3ccccc3n2)cc1` [E 17, 2-(4-Methanesulfonyl-phenyl)-4-(3-trifluoromethyl-pyrazol-1-yl)-quinoline] showed a melting point of 194 to 196 °C. Consider `FC(F)(F)Oc1ccc(-c2cc(-n3ccc(C(F)(F)F)n3)c3ccccc3n2)cc1` [E 18, 2-(4-Trifluoromethoxy-phenyl)-4-(3-trifluoromethyl-pyrazol-1-yl)-quinoline], for which the melting point was in the range of 108 to 110 °C. Further, the IC50 in data set [4] was determined as 2330 nM.

Take `COc1ccc(Nc2cc(-c3ccc(F)cc3)nc3ccccc23)cc1Cl` [E 8, (3-Chloro-4-methoxy-phenyl)-[2-(4-fluoro-phenyl)-quinolin-4-yl]-amine]: the melting point amounted to 260 °C. The IC50 in data set [1] was found to be 2100 nM. Further, in data set [4] (at 1 μM, read-out: Effect: % inhibition of smooth muscle cell proliferation), the inhibition at 1 µM was found to be 77%. The IC50 in data set [2] amounted to 3600 nM. As to `c1ccc(-c2cc(-n3ccc4ccccc43)c3ccccc3n2)cc1` [E 9, 4-Indol-1-yl-2-phenyl-quinoline], the melting point lay in the range of 100 to 102 °C. On to `Oc1ccc(-c2nc(-c3ccccc3)nc3ccccc23)c(O)c1` [E 4, 4-(2-Phenyl-quinazolin-4-yl)-benzene-1,3-diol], for which the melting point lay in the range of 178 to 180 °C. `CS(=O)(=O)c1ccc(Nc2cc(-n3ccc(C(F)(F)F)n3)c3ccccc3n2)cc1` [E 23, (4-Methanesulfonyl-phenyl)-[4-(3-trifluoromethyl-pyrazol-1-yl)-quinolin-2-yl]-amine] showed a melting point of 194 to 196 °C. For the same compound, the IC50 in data set [1] came to 9000 nM. In data set [2], the IC50 amounted to 8100 nM.
